# Measurements reported in patent publication US20260256797A1, “NOVEL INDENONE DERIVATIVES AND USES THEREOF” (AMYLOID SOLUTION INC., priority 2022, published 2026).
# Key:
# Aβ1-42 = target: T1, Aβ1-42 (Homo sapiens, UniProt P05067); assay: Amyloid-beta (Aβ) disaggregation test by thioflavin-T assay; assay type: biochemical; conditions: 50 μM Aβ1-42 aggregated 24 hours, then compound 0-500 μM for 48 hours at 37° C.
# T1 construct: dissolving Aβ1-42 or Tau-RD3 (Tau repeat domain 3) monomer in DMSO
# T1 sequence (P05067 672-713 limits assumed): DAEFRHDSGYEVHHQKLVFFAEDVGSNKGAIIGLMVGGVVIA
# Description: (§1) Each compound was dissolved in DMSO to a concentration of 10 mM. Subsequently, the compound was diluted with 6% DMSO (in DW) and used.
# (§2) Specifically, amyloid-beta and tau solutions were prepared by dissolving Aβ1-42 or Tau-RD3 (Tau repeat domain 3) monomer in DMSO to a concentration of 10 mM. Thereafter, each solution was diluted with DW to a concentration of 100 μM and stored on ice. Meanwhile, thioflavin-T was dissolved in 50 mM glycine buffer (pH 8.5) to a concentration of 5 mM. Thereafter, the resulting solution was diluted with 50 mM glycine buffer (pH 8.5) to a concentration of 5 μM and stored in a dark room while light was blocked.
# (§3) Each of the amyloid-beta and tau solutions prepared according to Experimental Example 1.1 was added to a 1.5 mL microcentrifuge tube to a concentration of 50 μM or 35 µM, and then a reaction was allowed to occur therebetween at 37° C. for 24 hours. Each of the 1.5 mL microcentrifuge tubes in which amyloid-beta aggregation and tau aggregation had been completed was treated with each compound at a concentrated of 500 μM to 0 μM through serial dilution, and then a further reaction was allowed to occur therebetween at 37° C. for 48 hours. 25 μL of the reaction solution in which the reaction had been completed was added to each well of a 96-well plate for fluorescence analysis, and 75 μL of the previously prepared thioflavin-T solution was added to each well. After a reaction was allowed to occur at room temperature in the dark for 5 minutes, fluorescence values were measured at excitation 450 nm and emission 485 nm by using a multi-mode microplate reader.
# (§4) The fluorescence value of a group (control) treated with amyloid-beta or tau alone, followed by aggregation for 72 hours was converted into a percentage value and expressed as 100, and amyloid-beta and tau aggregates, in which aggregation had been completed upon reaction for 24 hours, were treated with each compound at each concentration and a further reaction was allowed to occur therebetween for 48 hours, and then fluorescence values thereof were measured and converted into relative values. The results thereof are illustrated in FIGS. 1 to 6 and 7 to 12. In addition, EC50 values of the compounds of the present disclosure for amyloid-beta and tau, respectively are summarized in Table 1.
# [1] = target: Tau-RD3 (Tau repeat domain 3) (Homo sapiens, UniProt P10636); assay: Tau disaggregation test by thioflavin-T assay; assay type: biochemical; conditions: 35 μM Tau-RD3 aggregated 24 hours, then compound 0-500 μM for 48 hours at 37° C.
# Tau-RD3 (Tau repeat domain 3), sequence (P10636 623-653 limits assumed): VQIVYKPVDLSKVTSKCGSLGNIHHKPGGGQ
# Description: as §1, §2, §3, §4
Compound,EC50 (Aβ1-42),EC50 [1]
"Cc1ncsc1C1=C(c2cccnc2)C(=O)c2cc(OCCCc3ccccc3)ccc21 [Compound 1, 3-(4-methylthiazol-5-yl)-6-(3-phenylpropoxy)-2-(pyridin-3-yl)-1H-inden-1-one]",8.2 µM,19.2 µM
"Cc1ncsc1C1=C(c2ccccc2CC#N)C(=O)c2cc(OCCCc3ccccc3)ccc21 [Compound 2, 2-(2-(3-(4-methylthiazol-5-yl)-1-oxo-6-(3-phenylpropoxy)-1H-inden-2-yl)phenyl) acetonitrile]",92.9 µM,321 µM
"Cc1ncsc1C1=C(Br)C(=O)c2cc(OCCCc3ccccc3)ccc21 [Compound 3, 2-bromo-3-(4-methylthiazol-5-yl)-6-(3-phenylpropoxy)-1H-inden-1-one]",3.8 µM,8.5 µM
"Cc1scnc1C1=C(c2cccnc2)C(=O)c2cc(OCCCN3CCOCC3)ccc21 [Compound 4, 3-(5-methylthiazol-4-yl)-6-(3-morpholinopropoxy)-2-(pyridin-3-yl)-1H-inden-1-one]",75 µM,156 µM
"Cc1scnc1C1=C(Br)C(=O)c2cc(OCCCN3CCOCC3)ccc21 [Compound 5, 2-bromo-3-(5-methylthiazol-4-yl)-6-(3-morpholinopropoxy)-1H-inden-1-one]",65.6 µM,344 µM
"O=C1C(c2cccnc2)=C(c2cccs2)c2ccc(OCCCc3ccccc3)cc21 [Compound 6, 6-(3-phenylpropoxy)-2-(pyridin-3-yl)-3-(thiophen-2-yl)-1H-inden-1-one]",3.2 µM,16.2 µM
"Cc1scnc1C1=C(c2cccnc2)C(=O)c2cc(OCCCc3ccccc3)ccc21 [Compound 8, 3-(5-methylthiazol-4-yl)-6-(3-phenylpropoxy)-2-(pyridin-3-yl)-1H-inden-1-one]",1.9 µM,4.2 µM
"O=C1C(c2cccnc2)=C(c2ccoc2)c2ccc(OCCCc3ccccc3)cc21 [Compound 9, 3-(furan-3-yl)-6-(3-phenylpropoxy)-2-(pyridin-3-yl)-1H-inden-1-one]",19.1 µM,53.6 µM
"Cc1ncsc1C1=C(c2ccccc2)C(=O)c2cc(OCCCc3ccccc3)ccc21 [Compound 10, 3-(4-methylthiazol-5-yl)-2-phenyl-6-(3-phenylpropoxy)-1H-inden-1-one]",5.6 µM,350 µM
"Cc1ncsc1C1=C(c2cccs2)C(=O)c2cc(OCCCc3ccccc3)ccc21 [Compound 12, 3-(4-methylthiazol-5-yl)-6-(3-phenylpropoxy)-2-(thiophen-2-yl)-1H-inden-1-one]",4.3 µM,154 µM
"Cc1ncsc1C1=C(c2cccnc2)C(=O)c2cc(OCCCc3ccncc3)ccc21 [Compound 13, 3-(4-methylthiazol-5-yl)-2-(pyridin-3-yl)-6-(3-(pyridin-4-yl)propoxy)-1H-inden-1-one]",110 µM,1.5 µM
"Cc1ncsc1C1=C(c2cccnc2)C(=O)c2cc(OCCc3ccccc3)ccc21 [Compound 14, 3-(4-methylthiazol-5-yl)-6-phenethoxy-2-(pyridin-3-yl)-1H-inden-1-one]",177 µM,> 500 µM
"Cc1ncsc1C1=C(c2cccnc2)C(=O)c2cc(OCCCCc3ccccc3)ccc21 [Compound 15, 3-(4-methylthiazol-5-yl)-6-(4-phenylbutoxy)-2-(pyridin-3-yl)-1H-inden-1-one]",2.5 µM,59.8 µM
"Cc1ncsc1C1=C(c2cccnc2)C(=O)c2cc(OCOCc3ccccc3)ccc21 [Compound 16, 6-((benzyloxy)methoxy)-3-(4-methylthiazol-5-yl)-2-(pyridin-3-yl)-1H-inden-1-one]",12.5 µM,96.5 µM
"Cc1ncsc1C1=C(c2cccnc2)C(=O)c2cc(OCCOc3ccccc3)ccc21 [Compound 17, 3-(4-methylthiazol-5-yl)-6-(2-phenoxyethoxy)-2-(pyridin-3-yl)-1H-inden-1-one]",5.7 µM,19.2 µM
"COc1ccc(C2=C(c3ncsc3C)c3ccc(OCCc4ccccc4)cc3C2=O)cc1 [Compound 18, 2-(4-methoxyphenyl)-3-(5-methylthiazol-4-yl)-6-phenethoxy-1H-inden-1-one]",26.1 µM,242 µM

Compound,EC50 (Aβ1-42),EC50 [1]
"COc1ccc(C2=C(c3ncsc3C)c3ccc(OCCCCc4ccccc4)cc3C2=O)cc1 [Compound 19, 2-(4-methoxyphenyl)-3-(5-methylthiazol-4-yl)-6-(4-phenylbutoxy)-1H-inden-1-one]",11.6 µM,338 µM
"COc1ccc(C2=C(c3ncsc3C)c3ccc(OCOCc4ccccc4)cc3C2=O)cc1 [Compound 20, 6-((benzyloxy)methoxy)-2-(4-methoxyphenyl)-3-(5-methylthiazol-4-yl)-1H-inden-1-one]",11.9 µM,478 µM
"COc1ccc(OCCOc2ccc3c(c2)C(=O)C(c2ccc(F)cc2)=C3c2ncsc2C)cc1 [Compound 22, 2-(4-fluorophenyl)-6-(2-(4-methoxyphenoxy)ethoxy)-3-(5-methylthiazol-4-yl)-1H-inden-1-one]",18.5 µM,60.3 µM
"COc1ccc(OCCOc2ccc3c(c2)C(=O)C(c2ccc(F)cc2)=C3c2ncsc2C)cc1OC [Compound 23, 6-(2-(3,4-dimethoxyphenoxy)ethoxy)-2-(4-fluorophenyl)-3-(5-methylthiazol-4-yl)-1H-inden-1-one]",4.1 µM,5.2 µM
"Cc1scnc1C1=C(c2ccc(F)cc2)C(=O)c2cc(OCCOc3ccc4c(c3)OCO4)ccc21 [Compound 24, 6-(2-(benzo[d][1,3]dioxol-5-yloxy)ethoxy)-2-(4-fluorophenyl)-3-(5-methylthiazol-4-yl)-1H-inden-1-one]",99.6 µM,> 500 µM
"Cc1scnc1C1=C(c2ccc(F)cc2)C(=O)c2cc(OCCOc3ccncc3)ccc21 [Compound 25, 2-(4-fluorophenyl)-3-(5-methylthiazol-4-yl)-6-(2-(pyridin-4-yloxy)ethoxy)-1H-inden-1-one]",7.6 µM,> 500 µM
"Cc1scnc1C1=C(c2cncnc2)C(=O)c2cc(OCCOc3ccc(Cl)c(Cl)c3)ccc21 [Compound 26, 6-(2-(3,4-dichlorophenoxy)ethoxy)-3-(5-methylthiazol-4-yl)-2-(pyrimidin-5-yl)-1H-inden-1-one]",2.4 µM,4.8 µM
"Cc1scnc1C1=C(c2cncnc2)C(=O)c2cc(OCCOc3ccc(F)c(F)c3)ccc21 [Compound 27, 6-(2-(3,4-difluorophenoxy)ethoxy)-3-(5-methylthiazol-4-yl)-2-(pyrimidin-5-yl)-1H-inden-1-one]",237 µM,> 500 µM
"Cc1scnc1C1=C(c2cccs2)C(=O)c2cc(OCCc3ccccc3)ccc21 [Compound 28, 3-(5-methylthiazol-4-yl)-6-phenethoxy-2-(thiophen-2-yl)-1H-inden-1-one]",8.3 µM,310 µM
"Cc1scnc1C1=C(c2cccs2)C(=O)c2cc(OCCCCc3ccccc3)ccc21 [Compound 29, 3-(5-methylthiazol-4-yl)-6-(4-phenylbutoxy)-2-(thiophen-2-yl)-1H-inden-1-one]",7.5 µM,> 500 µM
"Cc1scnc1C1=C(c2cccs2)C(=O)c2cc(OCOCc3ccccc3)ccc21 [Compound 30, 6-((benzyloxy)methoxy)-3-(5-methylthiazol-4-yl)-2-(thiophen-2-yl)-1H-inden-1-one]",3.7 µM,410 µM
"Cc1scnc1C1=C(c2cccs2)C(=O)c2cc(OCCOc3ccccc3)ccc21 [Compound 31, 3-(5-methylthiazol-4-yl)-6-(2-phenoxyethoxy)-2-(thiophen-2-yl)-1H-inden-1-one]",12.8 µM,166 µM
"COc1ccc(OCCOc2ccc3c(c2)C(=O)C(c2ccc(C(F)(F)F)cc2)=C3c2ncsc2C)cc1OC [Compound 33, 6-(2-(3,4-dimethoxyphenoxy)ethoxy)-3-(5-methylthiazol-4-yl)-2-(4-(trifluoromethyl)phenyl)-1H-inden-1-one]",10.4 µM,145 µM
"Cc1scnc1C1=C(c2ccc(C(F)(F)F)cc2)C(=O)c2cc(OCCOc3ccc4c(c3)OCO4)ccc21 [Compound 34, 6-(2-(benzo[d][1,3]dioxol-5-yloxy)ethoxy)-3-(5-methylthiazol-4-yl)-2-(4-(trifluoromethyl)phenyl)-1H-inden-1-one]",31.2 µM,426 µM
"Cc1scnc1C1=C(c2ccc(C(F)(F)F)cc2)C(=O)c2cc(OCCOc3ccncc3)ccc21 [Compound 35, 3-(5-methylthiazol-4-yl)-6-(2-(pyridin-4-yloxy)ethoxy)-2-(4-(trifluoromethyl)phenyl)-1H-inden-1-one]",1 µM,> 500 µM
